US4822635A, “Sweetening with L-aminodicarboxylic acid esters” (General Foods Corporation, priority 1988, dated 1989)
Where “and” joins values, the source holds several entries; their conditions need not be identical. Identical values can stand only once. Where a SMILES comes first, the peptide text is derived from it. The star is where a group is joined. tBu = CC(C)(C)*

What was measured:
[1] = Stability (half life) in buffer solutions at pH 3, 5 and 7 at 50, 75 or 100 °C; type: physicochemical; settings: for half-life: buffer; for Stability in buffered solutions: buffered solutions at pH 3, 5 and 7; for Stability compared with aspartame: buffered solutions studied, except pH 3 at 100 °C
Experimental: α-L-Aspartyl-2-methylalanine[β(+)Fenchyl]ester (Example 9), α-L-Aspartyl-D-alanine[β(+)Fenchyl]ester, (Example 10) and aspartame L-Aspartyl-L-phenylalanine methyl ester were studied for stability at pH3, 5 and 7 in buffer solutions maintained at 50° C., 75° C., or 100° C., the following results were obtained: […]

[2] = Sweetness determination by a panel of experts: aqueous solutions matched to sucrose standard solutions (sucrose equivalence); parameters: key to Sucrose equivalence: weight % sucrose solution of matched sweetness
Excerpt: A taste procedure for determination of sweetness merely involves the determination of sucrose equivalency. Sucrose equivalence for sweeteners are readily determined. The amount of a sweetener that is equivalent to a given weight percent sucrose can be determined by having a panel of tasters taste solutions of a sweetener at known concentrations and match its sweetness to standard solutions of sucrose.
The following examples further illustrate the invention. In the following examples, the sensory evaluation were obtained by a panel of experts using known weight percent aqueous solutions of the exemplified compounds and were matched to sucrose standard solutions.

[3] = prior art statement; cited from earlier work
[4] = pH 3, buffer solution, 50 °C, pH 3
[5] = pH 3, buffer solution, 75 °C, pH 3
[6] = pH 3, buffer solution, 100 °C, pH 3
[7] = pH 5, buffer solution, 50 °C, pH 5
[8] = pH 5, buffer solution, 75 °C, pH 5
[9] = pH 5, buffer solution, 100 °C, pH 5
[10] = pH 7, buffer solution, 100 °C, pH 7
[11] = concentration 0.00185 (weight percent aqueous solution)
[12] = concentration 0.0025 (weight percent aqueous solution)
[13] = concentration 0.00375 (weight percent aqueous solution)
[14] = concentration 0.005 (weight percent aqueous solution)
[15] = concentration 0.00692 (so in the source), weight percent aqueous solution
[16] = concentration 0.0075 (weight percent aqueous solution)
[17] = concentration 0.01 (weight percent aqueous solution)
[18] = concentration 0.00012 (weight percent aqueous solution)
[19] = concentration 0.00024 (weight percent aqueous solution)
[20] = concentration 0.00047 (weight percent aqueous solution)
[21] = concentration 0.00092 (weight percent aqueous solution)
[22] = concentration 0.010 (weight percent aqueous solution)
[23] = concentration 0.025 (weight percent aqueous solution)
[24] = concentration 0.05 (weight percent aqueous solution)

In the case of `CC(C)(NC(=O)[C@@H](N)CC(=O)O)C(=O)OC1C2(C)CCC(C2)C1(C)C` (single isomer, unassigned) [Example 9, α-L-Aspartyl-2-methylalanine[β(+)Fenchyl]ester], the half-life [1, 4] is reported as 92200 min, the half-life [1, 5] is reported as 4320 min and the half-life [1, 6] is reported as 504 min. It also gave a half-life [1, 7] of 216000 min, a half-life [1, 8] of 21600 min and a half-life [1, 9] of 1980 min. The half-life [1, 10] was 4020 min, the “Stability compared with Example 10” value ([1]; buffered solutions) was “more stable” and the “Stability in buffered solutions” value [1] was “outstanding stability”. For the same compound, the “Stability compared with aspartame” value [1] was “better stability”, the Sucrose equivalence [2, 11] was 5.7% and the “Sweetness relative to sucrose” value [2, 11] was 3100 × Sucrose. For the same compound, the Sucrose equivalence [2, 12] was 6.0% and 4.3% and 4.25%, the “Sweetness relative to sucrose” value [2, 12] was 2400 × Sucrose and 1733 × Sucrose and 1700 × Sucrose and the Sucrose equivalence [2, 13] was 6.0%. The “Sweetness relative to sucrose” value [2, 13] was 1600 × Sucrose, the Sucrose equivalence [2, 14] was 7.37% and 7.0% and 6.0% and the “Sweetness relative to sucrose” value [2, 14] was 1475 × Sucrose and 1400 × Sucrose and 1200 × Sucrose. The Sucrose equivalence [2, 15] was 3.5%, the “Sweetness relative to sucrose” value [2, 15] was 3800 × Sucrose and the Sucrose equivalence [2, 16] was 8.5%. The “Sweetness relative to sucrose” value [2, 16] was 1133 × Sucrose, the Sucrose equivalence [2, 17] was 9.25% and 9.0% and the “Sweetness relative to sucrose” value [2, 17] was 925 × Sucrose and 900 × Sucrose.

Compound `C[C@@H](NC(=O)[C@@H](N)CC(=O)O)C(=O)OC1C2(C)CCC(C2)C1(C)C` (single isomer, unassigned) [Example 10, α-L-Aspartyl-D-alanine[β(+)Fenchyl]ester] has a half-life [1, 4] of 31700 min, a half-life [1, 5] of 1870 min and a half-life [1, 6] of 234 min. It also gave a half-life [1, 7] of 189000 min, a half-life [1, 8] of 7340 min and a half-life [1, 9] of 840 min. The half-life [1, 10] was 600 min, the “Stability in buffered solutions” value [1] was “outstanding stability” and the “Stability compared with aspartame” value [1] was “better stability”. For the same compound, the Sucrose equivalence [2, 18] was 0.6%, the “Sweetness relative to sucrose” value [2, 18] was 5000 × Sucrose and the Sucrose equivalence [2, 19] was 1.42%. For the same compound, the “Sweetness relative to sucrose” value [2, 19] was 5900 × Sucrose, the Sucrose equivalence [2, 20] was 2.28% and the “Sweetness relative to sucrose” value [2, 20] was 4900 × Sucrose. The Sucrose equivalence [2, 21] was 4.7%, the “Sweetness relative to sucrose” value [2, 21] was 5100 × Sucrose and the Sucrose equivalence [2, 11] was 6.5%. For the same compound, the “Sweetness relative to sucrose” value [2, 11] was 3500 × Sucrose, the Sucrose equivalence [2, 12] was 6.0% and the “Sweetness relative to sucrose” value [2, 12] was 2400 × Sucrose. The Sucrose equivalence [2, 13] was 8.6%, the “Sweetness relative to sucrose” value [2, 13] was 2300 × Sucrose and the Sucrose equivalence [2, 14] was 9.3% and 10.0%. The “Sweetness relative to sucrose” value [2, 14] was 1860 × Sucrose and 2000 × Sucrose, the Sucrose equivalence [2, 16] was 9.0% and the “Sweetness relative to sucrose” value [2, 16] was 1200 × Sucrose. The Sucrose equivalence [2, 17] was 11.0% and the “Sweetness relative to sucrose” value [2, 17] was 1100 × Sucrose.

With `COC(=O)[C@H](Cc1ccccc1)NC(=O)[C@@H](N)CC(=O)O` [Aspartame, L-Aspartyl-L-phenylalanine methyl ester, reference compound] (H-Asp-Phe-OMe) the half-life [1, 5] was 1300 min, the half-life [1, 6] was 318 min and the half-life [1, 8] was 1580 min. The half-life [1, 9] was 318 min, the half-life [1, 10] was < 60 min and the “Stability compared with Example 9 and Example 10” value ([1]; pH 3, 100 °C, between Example 9 and Example 10) was “intermediate stability”.

In the case of `C[C@@H](NC(=O)[C@@H](N)CC(=O)O)C(=O)OC1C(C)(C)CCC1(C)C` [Example 1, L-Aspartyl-D-alanine(2,2,5,5-tetramethyl-1-cyclopentyl)ester], the Sucrose equivalence [2, 14] is reported as 2.5, the Sucrose equivalence [2, 22] is reported as 3.7 and the Sucrose equivalence [2, 23] is reported as 7.7. The Sucrose equivalence [2, 24] was 8.0.

With `CC(C)(NC(=O)[C@@H](N)CC(=O)O)C(=O)OC1C(C)(C)CCC1(C)C` [Example 2, N-(L-Aspartyl)-2-methylalanine(2,2,5,5-tetramethyl-1-cyclopentyl)ester] the Sucrose equivalence [2, 14] was 2.00, the Sucrose equivalence [2, 22] was 3.25 and the Sucrose equivalence [2, 23] was 5.75.

For `C[C@@H](NC(=O)[C@@H](N)CC(=O)O)C(=O)OC1(C)CCCC1` [Example 6, N-L-Aspartyl-D-alanine (1-methyl-1-cyclopentyl)ester], the Sucrose equivalence [2, 24] was 2.0 and the “Sweetness relative to sucrose” value [2, 24] was 40 × Sucrose.

With `CC1CCC(C)C1OC(=O)[C@@H](C)NC(=O)[C@@H](N)CC(=O)O` (stereo partly drawn) [Example 7, N-L-Aspartyl-D-alanine(2,5-dimethylcyclopentyl)ester] the Sucrose equivalence [2, 14] was 1.16, the “Sweetness relative to sucrose” value [2, 14] was 233 × Sucrose and the “Sweetness relative to sucrose” value [2, 17] was 230 × Sucrose. The Sucrose equivalence [2, 22] was 2.3, the Sucrose equivalence [2, 23] was 4.82 and the “Sweetness relative to sucrose” value [2, 23] was 193 × Sucrose. For the same compound, the Sucrose equivalence [2, 24] was 7.50 and the “Sweetness relative to sucrose” value [2, 24] was 150 × Sucrose.

In the case of `CC1CCC(C)C1OC(=O)C1(NC(=O)[C@@H](N)CC(=O)O)CC1` (stereo partly drawn) [L-Aspartyl-1-aminocyclopropyl-1-carboxylicacid, 2,5-dimethyl-1-cyclopentyl ester], the Sucrose equivalence [2, 14] is reported as 1.0, the “Sweetness relative to sucrose” value [2, 14] is reported as 200 × Sucrose and the “Sweetness relative to sucrose” value [2, 17] is reported as 217 × Sucrose. For the same compound, the Sucrose equivalence [2, 22] was 2.2, the Sucrose equivalence [2, 23] was 3.3 and the “Sweetness relative to sucrose” value [2, 23] was 133 × Sucrose.

For `CCC(C)(C)OC[C@H](NC(=O)[C@@H](N)CC(=O)O)C(=O)OC` [L-aspartyl-O-t-amyl-L-serine methyl ester], the “Sweetness (in words)” value [3] is listed as “significant sweetness”.

In the case of `COC(=O)[C@H](COC(C)(C)C)NC(=O)[C@@H](N)CC(=O)O` [L-aspartyl-O-t-butyl-L-serine methyl ester] (H-Asp-Ser(tBu)-OMe), the “Sweetness (in words)” value [3] is given as “significant sweetness”.
